{
  "source": "BindingDB's records for doi:10.1021/jm980414r",
  "about": "(Glaxo Wellcome Research and Development, 1998)",
  "data": [
    {"experiment": "-log concentration required to induce 50% maximum lipogenic activity against Peroxisome proliferator activated receptor gamma", "units": {"EC50": "nM"}, "values": [
      {"smiles": "CN(CCOc1ccc(C[C@H](Nc2ccccc2C(=O)C2CCCCC2)C(=O)O)cc1)c1nc2ccccc2o1", "EC50": 8.5},
      {"smiles": "CCCOC(=O)c1ccccc1NC(Cc1ccc(OCCc2nc(-c3ccccc3)oc2C)cc1)C(=O)O", "note": "(stereo unspecified)", "EC50": 13},
      {"smiles": "Cc1oc(-c2ccccc2)nc1CCOc1ccc(CC(Nc2ccccc2C(=O)c2cccc(CO)c2)C(=O)O)cc1", "note": "(stereo unspecified)", "EC50": 759},
      {"smiles": "Cc1oc(-c2ccccc2)nc1CCOc1ccc(CC(Nc2ccccc2C(=O)N(C)C)C(=O)O)cc1", "note": "(stereo unspecified)", "EC50": "> 1000"},
      {"smiles": "CCOC(=O)c1ccccc1NC(Cc1ccc(OCCc2nc(-c3ccccc3)oc2C)cc1)C(=O)O", "note": "(stereo unspecified)", "EC50": 0.427},
      {"smiles": "Cc1oc(-c2ccccc2)nc1CCOc1ccc(CC(Nc2ccccc2C(=O)c2cccc(CN(C)C)c2)C(=O)O)cc1", "note": "(stereo unspecified)", "EC50": 1180},
      {"smiles": "Cc1ccc(NC(Cc2ccc(OCCN(C)c3nc4ccccc4o3)cc2)C(=O)O)c(C(=O)c2ccccc2)c1", "note": "(stereo unspecified)", "EC50": 63},
      {"smiles": "Cc1oc(-c2ccccc2)nc1CCOc1ccc(C[C@@H](Nc2ccccc2C(=O)C2CCCCC2)C(=O)O)cc1", "EC50": 372},
      {"smiles": "CN(CCOc1ccc(CC(Nc2ccsc2C(=O)c2ccccc2)C(=O)O)cc1)c1nc2ccccc2o1", "note": "(stereo unspecified)", "EC50": 3.5},
      {"smiles": "CN(CCOc1ccc(CC(Nc2ccccc2C(=O)c2cccc3ccccc23)C(=O)O)cc1)c1nc2ccccc2o1", "note": "(stereo unspecified)", "EC50": 2.7},
      {"smiles": "CN(CCOc1ccc(CC(Nc2ccccc2C(=O)c2ccccc2C(F)(F)F)C(=O)O)cc1)c1nc2ccccc2o1", "note": "(stereo unspecified)", "EC50": 71},
      {"smiles": "Cc1oc(-c2ccccc2)nc1CCOc1ccc(CC(Nc2ccccc2C(=O)c2cccnc2)C(=O)O)cc1", "note": "(stereo unspecified)", "EC50": 17},
      {"smiles": "Cc1oc(-c2ccccc2)nc1CCOc1ccc(CC(Nc2ccccc2C(=O)c2ccc(CO)cc2)C(=O)O)cc1", "note": "(stereo unspecified)", "EC50": 174},
      {"smiles": "CN(CCOc1ccc(CC(Nc2ccccc2C(=O)c2ccc(OCc3ccccc3)cc2)C(=O)O)cc1)c1nc2ccccc2o1", "note": "(stereo unspecified)", "EC50": 676},
      {"smiles": "CN(CCOc1ccc(CC(Nc2cscc2C(=O)c2ccccc2)C(=O)O)cc1)c1nc2ccccc2o1", "note": "(stereo unspecified)", "EC50": 1.4},
      {"smiles": "COc1ccccc1C(=O)c1ccccc1NC(Cc1ccc(OCCN(C)c2nc3ccccc3o2)cc1)C(=O)O", "note": "(stereo unspecified)", "EC50": 501},
      {"smiles": "CN(CCOc1ccc(CC(Nc2ccncc2C(=O)c2ccccc2)C(=O)O)cc1)c1nc2ccccc2o1", "note": "(stereo unspecified)", "EC50": 724},
      {"smiles": "Cc1oc(-c2ccccc2)nc1CCOc1ccc(CC(Nc2ccccc2C(=O)O)C(=O)O)cc1", "note": "(stereo unspecified)", "EC50": "> 10000"},
      {"smiles": "Cc1oc(-c2ccccc2)nc1CCOc1ccc(CC(Nc2ccccc2C(=O)c2ccncc2)C(=O)O)cc1", "note": "(stereo unspecified)", "EC50": 107},
      {"smiles": "Cc1ccccc1C(=O)c1ccccc1NC(Cc1ccc(OCCN(C)c2nc3ccccc3o2)cc1)C(=O)O", "note": "(stereo unspecified)", "EC50": 6.9},
      {"smiles": "CN(CCOc1ccc(CC(Nc2ccccc2C(=O)c2cccs2)C(=O)O)cc1)c1nc2ccccc2o1", "note": "(stereo unspecified)", "EC50": 78},
      {"smiles": "CNC(=O)c1ccccc1NC(Cc1ccc(OCCc2nc(-c3ccccc3)oc2C)cc1)C(=O)O", "note": "(stereo unspecified)", "EC50": 363},
      {"smiles": "CN(CCOc1ccc(CC(Nc2sccc2C(=O)c2ccccc2)C(=O)O)cc1)c1nc2ccccc2o1", "note": "(stereo unspecified)", "EC50": 95},
      {"smiles": "Cc1cccc(C(=O)c2ccccc2NC(Cc2ccc(OCCN(C)c3nc4ccccc4o3)cc2)C(=O)O)c1", "note": "(stereo unspecified)", "EC50": 14},
      {"smiles": "COc1ccc(C(=O)c2ccccc2NC(Cc2ccc(OCCN(C)c3nc4ccccc4o3)cc2)C(=O)O)cc1", "note": "(stereo unspecified)", "EC50": 95},
      {"smiles": "CN(CCOc1ccc(CC(Nc2ccccc2C(=O)C2CCCC2)C(=O)O)cc1)c1nc2ccccc2o1", "note": "(stereo unspecified)", "EC50": 24},
      {"smiles": "CN(CCOc1ccc(CC(Nc2ccccc2C(=O)C2CCCCCC2)C(=O)O)cc1)c1nc2ccccc2o1", "note": "(stereo unspecified)", "EC50": 66},
      {"smiles": "CN(CCOc1ccc(CC(Nc2ccccc2C(=O)c2cccc(OCc3ccccc3)c2)C(=O)O)cc1)c1nc2ccccc2o1", "note": "(stereo unspecified)", "EC50": 891},
      {"smiles": "CSc1nc(NC(Cc2ccc(OCCN(C)c3nc4ccccc4o3)cc2)C(=O)O)c(C(=O)c2ccccc2)s1", "note": "(stereo unspecified)", "EC50": "< 2510"},
      {"smiles": "CN(CCOc1ccc(CC(Nc2ccc(Cl)cc2C(=O)c2ccccc2)C(=O)O)cc1)c1nc2ccccc2o1", "note": "(stereo unspecified)", "EC50": 178},
      {"smiles": "Cc1oc(-c2ccccc2)nc1CCOc1ccc(CC(Nc2ccccc2C(=O)c2cccc(C(=O)O)c2)C(=O)O)cc1", "note": "(stereo unspecified)", "EC50": 1580},
      {"smiles": "Cc1oc(-c2ccccc2)nc1CCOc1ccc(CC(Nc2ccccc2C(=O)OC(C)C)C(=O)O)cc1", "note": "(stereo unspecified)", "EC50": 3.2},
      {"smiles": "Cc1oc(-c2ccccc2)nc1CCOc1ccc(CC(Nc2ccccc2C(=O)c2cccc(N)c2)C(=O)O)cc1", "note": "(stereo unspecified)", "EC50": 132},
      {"smiles": "CN(CCOc1ccc(CC(Nc2ccccc2C(=O)c2ccc(C(F)(F)F)cc2)C(=O)O)cc1)c1nc2ccccc2o1", "note": "(stereo unspecified)", "EC50": 69},
      {"smiles": "CN(CCOc1ccc(CC(Nc2ccccc2C(=O)c2ccc(-c3ccccc3)cc2)C(=O)O)cc1)c1nc2ccccc2o1", "note": "(stereo unspecified)", "EC50": 339},
      {"smiles": "Cc1ccc(C(=O)c2ccccc2NC(Cc2ccc(OCCN(C)c3nc4ccccc4o3)cc2)C(=O)O)cc1", "note": "(stereo unspecified)", "EC50": 12},
      {"smiles": "CN(CCOc1ccc(CC(Nc2ccccc2C(=O)c2cccc(C(F)(F)F)c2)C(=O)O)cc1)c1nc2ccccc2o1", "note": "(stereo unspecified)", "EC50": 27},
      {"smiles": "COc1cccc(C(=O)c2ccccc2NC(Cc2ccc(OCCN(C)c3nc4ccccc4o3)cc2)C(=O)O)c1", "note": "(stereo unspecified)", "EC50": 155},
      {"smiles": "CN(CCOc1ccc(CC(Nc2ccccc2C(=O)c2ccsc2)C(=O)O)cc1)c1nc2ccccc2o1", "note": "(stereo unspecified)", "EC50": 72},
      {"smiles": "CN(CCOc1ccc(CC(Nc2ccccc2C(=O)c2ccccc2)C(=O)O)cc1)c1nc2ccccc2o1", "note": "(stereo unspecified)", "EC50": 4.4},
      {"smiles": "Cc1oc(-c2ccccc2)nc1CCOc1ccc(CC(Nc2ccccc2C(=O)c2ccc(CN(C)C)cc2)C(=O)O)cc1", "note": "(stereo unspecified)", "EC50": 977}
    ]}
  ]
}
